In PubChem BioAssay AID180 (DTP/NCI, 2004):
Where “and” joins values, the source holds several entries; their conditions need not be identical. Equal entries are not always repeated.

Test system: BDF1 mice, Adenocarcinoma 755 s.c., tumor weight T/C
Assay: NCI In Vivo Anticancer Drug Screen. Data for tumor model Adenocarcinoma 755 (subcutaneous) in B6D2F1 (BDF1) mice
Settings: endpoint: mean tumor weight, higher = larger tumour
Procedure, shortened: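 Readout: T/C, i.e. treated-group measurement over vehicle-control measurement. Endpoint is survival or tumor size in tumor-bearing mice given compound.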

With `S=c1nc[nH]c2nc[nH]c12` the T/C (dose: 0.01 mg/kg/injection, schedule: Q01DX011 (ip), vehicle: carboxymethylcellulose (CMC)) was 161 % of control, the T/C (dose: 0.4 mg/kg/injection, schedule: Q01DX011 (ip), vehicle: carboxymethylcellulose (CMC)) was 110 % of control and the T/C (dose: 0.5 mg/kg/injection, schedule: Q01DX011 (ip), vehicle: saline) was 13 % of control. For the same compound, the T/C (dose: 0.69 mg/kg/injection, schedule: Q01DX011 (ip), vehicle: carboxymethylcellulose (CMC)) was 9 % of control, the T/C (dose: 0.75 mg/kg/injection, schedule: Q01DX011 (ip), vehicle: carboxymethylcellulose (CMC)) was 4 % of control and the T/C (dose: 0.87 mg/kg/injection, schedule: Q01DX011 (ip), vehicle: saline) was 21 % of control. For the same compound, the T/C (dose: 0.9 mg/kg/injection, schedule: Q01DX011 (ip), vehicle: carboxymethylcellulose (CMC)) was 31 % of control, the T/C (dose: 1.0 mg/kg/injection, schedule: Q01DX007 (ip), vehicle: carboxymethylcellulose (CMC)) was 23 % of control and the T/C (dose: 1.0 mg/kg/injection, schedule: Q01DX011 (ip), vehicle: saline) was 2 % of control and 16 % of control and 27 % of control. For the same compound, the T/C (dose: 1.07 mg/kg/injection, schedule: Q01DX011 (ip), vehicle: carboxymethylcellulose (CMC)) was 32 % of control, the T/C (dose: 1.25 mg/kg/injection, schedule: Q01DX011 (ip), vehicle: carboxymethylcellulose (CMC)) was 3 % of control and 11 % of control and the T/C (dose: 1.38 mg/kg/injection, schedule: Q01DX011 (ip), vehicle: carboxymethylcellulose (CMC)) was 4 % of control. The T/C (dose: 1.5 mg/kg/injection, schedule: Q01DX011 (ip), vehicle: alkali diluted with saline) was 8 % of control, the T/C (dose: 1.5 mg/kg/injection, schedule: Q01DX011 (ip), vehicle: saline) was 3 % of control and 7 % of control and the T/C (dose: 1.75 mg/kg/injection, schedule: Q01DX011 (ip), vehicle: saline) was 13 % of control. The T/C (dose: 1.75 mg/kg/injection, schedule: Q01DX011 (oral), vehicle: saline) was 22 % of control, the T/C (dose: 1.8 mg/kg/injection, schedule: Q01DX011 (ip), vehicle: carboxymethylcellulose (CMC)) was 4 % of control and 15 % of control and the T/C (dose: 2.0 mg/kg/injection, schedule: Q01DX007 (ip), vehicle: carboxymethylcellulose (CMC)) was 2 % of control and 9 % of control. The T/C (dose: 2.0 mg/kg/injection, schedule: Q01DX011 (ip), vehicle: alkali diluted with saline) was 2 % of control, the T/C (dose: 2.14 mg/kg/injection, schedule: Q01DX011 (ip), vehicle: carboxymethylcellulose (CMC)) was 9 % of control and the T/C (dose: 2.5 mg/kg/injection, schedule: Q01DX011 (oral), vehicle: alkali diluted with saline) was 4 % of control. The T/C (dose: 2.67 mg/kg/injection, schedule: Q01DX011 (ip), vehicle: carboxymethylcellulose (CMC)) was 20 % of control, the T/C (dose: 2.75 mg/kg/injection, schedule: Q01DX011 (ip), vehicle: carboxymethylcellulose (CMC)) was 3 % of control and the T/C (dose: 3.0 mg/kg/injection, schedule: Q01DX011 (ip), vehicle: carboxymethylcellulose (CMC)) was 1 % of control and 2 % of control and 6 % of control. For the same compound, the T/C (dose: 3.0 mg/kg/injection, schedule: Q01DX011 (ip), vehicle: saline) was 1 % of control, the T/C (dose: 3.5 mg/kg/injection, schedule: Q01DX011 (ip), vehicle: saline) was 4 % of control and the T/C (dose: 3.5 mg/kg/injection, schedule: Q01DX011 (oral), vehicle: saline) was 8 % of control. The T/C (dose: 4.0 mg/kg/injection, schedule: Q01DX011 (ip), vehicle: carboxymethylcellulose (CMC)) was 7 % of control, the T/C (dose: 4.0 mg/kg/injection, schedule: Q01DX011 (ip), vehicle: saline) was 5 % of control and the T/C (dose: 4.28 mg/kg/injection, schedule: Q01DX011 (ip), vehicle: carboxymethylcellulose (CMC)) was 4 % of control and 9 % of control. For the same compound, the T/C (dose: 5.0 mg/kg/injection, schedule: Q01DX007 (ip), vehicle: carboxymethylcellulose (CMC)) was 8 % of control, the T/C (dose: 5.0 mg/kg/injection, schedule: Q01DX011 (ip), vehicle: alkali diluted with saline) was 4 % of control and the T/C (dose: 5.35 mg/kg/injection, schedule: Q01DX011 (ip), vehicle: carboxymethylcellulose (CMC)) was 7 % of control and 17 % of control. The T/C (dose: 5.5 mg/kg/injection, schedule: Q01DX011 (ip), vehicle: carboxymethylcellulose (CMC)) was 4 % of control and 6 % of control, the T/C (dose: 6.0 mg/kg/injection, schedule: Q01DX011 (ip), vehicle: alkali diluted with saline) was 4 % of control and the T/C (dose: 6.0 mg/kg/injection, schedule: Q01DX011 (ip), vehicle: saline) was 1 % of control and 5 % of control. For the same compound, the T/C (dose: 7.0 mg/kg/injection, schedule: Q01DX011 (oral), vehicle: saline) was 10 % of control, the T/C (dose: 7.13 mg/kg/injection, schedule: Q01DX011 (ip), vehicle: carboxymethylcellulose (CMC)) was 8 % of control and the T/C (dose: 10.0 mg/kg/injection, schedule: Q01DX011 (ip), vehicle: alkali diluted with saline) was 1 % of control and 9 % of control. The T/C (dose: 10.0 mg/kg/injection, schedule: Q01DX011 (oral), vehicle: alkali diluted with saline) was 1 % of control, the T/C (dose: 10.7 mg/kg/injection, schedule: Q01DX011 (ip), vehicle: carboxymethylcellulose (CMC)) was 7 % of control and 8 % of control and the T/C (dose: 11.0 mg/kg/injection, schedule: Q01DX011 (ip), vehicle: carboxymethylcellulose (CMC)) was 4 % of control. The T/C (dose: 12.5 mg/kg/injection, schedule: Q01DX011 (ip), vehicle: carboxymethylcellulose (CMC)) was 1 % of control, the T/C (dose: 15.0 mg/kg/injection, schedule: Q01DX011 (ip), vehicle: carboxymethylcellulose (CMC)) was 4 % of control and the T/C (dose: 15.0 mg/kg/injection, schedule: Q01DX011 (ip), vehicle: saline) was 1 % of control and 4 % of control. For the same compound, the T/C (dose: 20.0 mg/kg/injection, schedule: Q01DX011 (ip), vehicle: alkali diluted with saline) was 1 % of control and 4 % of control, the T/C (dose: 21.4 mg/kg/injection, schedule: Q01DX011 (ip), vehicle: carboxymethylcellulose (CMC)) was 6 % of control and the T/C (dose: 22.0 mg/kg/injection, schedule: Q01DX011 (ip), vehicle: carboxymethylcellulose (CMC)) was 3 % of control. For the same compound, the T/C (dose: 25.0 mg/kg/injection, schedule: Q01DX011 (ip), vehicle: alkali diluted with saline) was 2 % of control and 11 % of control, the T/C (dose: 25.0 mg/kg/injection, schedule: Q01DX011 (ip), vehicle: carboxymethylcellulose (CMC)) was 4 % of control and the T/C (dose: 25.0 mg/kg/injection, schedule: Q01DX011 (ip), vehicle: saline) was 3 % of control. The T/C (dose: 30.0 mg/kg/injection, schedule: Q01DX011 (ip), vehicle: carboxymethylcellulose (CMC)) was 4 % of control and 6 % of control, the T/C (dose: 35.0 mg/kg/injection, schedule: Q01DX011 (ip), vehicle: carboxymethylcellulose (CMC)) was 5 % of control and the T/C (dose: 40.0 mg/kg/injection, schedule: Q01DX011 (ip), vehicle: alkali diluted with saline) was 2 % of control. For the same compound, the T/C (dose: 40.0 mg/kg/injection, schedule: Q01DX011 (ip), vehicle: carboxymethylcellulose (CMC)) was 5 % of control, the T/C (dose: 44.0 mg/kg/injection, schedule: Q01DX007 (ip), vehicle: carboxymethylcellulose (CMC)) was 3 % of control and the T/C (dose: 44.0 mg/kg/injection, schedule: Q01DX011 (ip), vehicle: alkali diluted with saline) was 2 % of control. For the same compound, the T/C (dose: 44.0 mg/kg/injection, schedule: Q01DX011 (ip), vehicle: carboxymethylcellulose (CMC)) was 3 % of control and 5 % of control, the T/C (dose: 50.0 mg/kg/injection, schedule: Q01DX011 (ip), vehicle: alkali diluted with saline) was 4 % of control and the T/C (dose: 60.0 mg/kg/injection, schedule: Q01DX011 (ip), vehicle: carboxymethylcellulose (CMC)) was 4 % of control. For the same compound, the T/C (dose: 62.0 mg/kg/injection, schedule: Q01DX011 (ip), vehicle: saline) was 2 % of control, the T/C (dose: 65.0 mg/kg/injection, schedule: Q01DX011 (ip), vehicle: alkali diluted with saline) was 1 % of control and the T/C (dose: 80.0 mg/kg/injection, schedule: Q01DX011 (ip), vehicle: alkali diluted with saline) was 2 % of control and 4 % of control. For the same compound, the T/C (dose: 100.0 mg/kg/injection, schedule: Q01DX011 (ip), vehicle: alkali diluted with saline) was 1 % of control, the T/C (dose: 100.0 mg/kg/injection, schedule: Q01DX011 (ip), vehicle: saline) was 1 % of control and the T/C (dose: 320.0 mg/kg/injection, schedule: Q01DX001 (ip), vehicle: alkali diluted with saline) was 5 % of control. For the same compound, the T/C (dose: 320.0 mg/kg/injection, schedule: Q01DX001 (oral), vehicle: alkali diluted with saline) was 19 % of control, the T/C (dose: 320.0 mg/kg/injection, schedule: Q07DX002 (ip), vehicle: alkali diluted with saline) was 4 % of control and the T/C (dose: 480.0 mg/kg/injection, schedule: Q01DX001 (oral), vehicle: alkali diluted with saline) was 22 % of control. For the same compound, the T/C (dose: 480.0 mg/kg/injection, schedule: Q03DX004 (oral), vehicle: alkali diluted with saline) was 1 % of control, the T/C (dose: 480.0 mg/kg/injection, schedule: Q07DX002 (oral), vehicle: alkali diluted with saline) was 2 % of control and the T/C (dose: 640.0 mg/kg/injection, schedule: Q01DX001 (oral), vehicle: alkali diluted with saline) was 10 % of control. For the same compound, the T/C (dose: 640.0 mg/kg/injection, schedule: Q07DX002 (oral), vehicle: alkali diluted with saline) was 2 % of control, the T/C (dose: 125.0 micrograms/kg/injection, schedule: Q01DX011 (ip), vehicle: saline) was 11 % of control and the T/C (dose: 250.0 micrograms/kg/injection, schedule: Q01DX011 (ip), vehicle: saline) was 20 % of control. For the same compound, the T/C (dose: 500.0 micrograms/kg/injection, schedule: Q01DX011 (ip), vehicle: saline) was 9 % of control and the T/C (dose: 1000.0 micrograms/kg/injection, schedule: Q01DX011 (ip), vehicle: saline) was 3 % of control.
`C/C(=N\NC(=O)c1ccncc1)c1ccc(F)cc1` was tested, and the T/C (dose: 30.0 mg/kg/injection, schedule: Q01DX011 (ip), vehicle: methylcellulose (MC)) was 95 % of control.
With `O=C1OC(c2cc(I)c(O)c(I)c2)(c2cc(I)c(O)c(I)c2)c2ccccc21` the T/C (dose: 0.38 mg/kg/injection, schedule: Q01DX011 (ip), vehicle: carboxymethylcellulose (CMC)) was 107 % of control, the T/C (dose: 0.76 mg/kg/injection, schedule: Q01DX011 (ip), vehicle: carboxymethylcellulose (CMC)) was 68 % of control and the T/C (dose: 1.56 mg/kg/injection, schedule: Q01DX011 (ip), vehicle: carboxymethylcellulose (CMC)) was 68 % of control.
